The values below come from patent US12590123B2, “Compounds and methods for treating cancer, viral infections, and allergic conditions” (Washington University, priority 2019, dated 2026).

pIC50: −log10 of the molar value.

Common to all, as to assay type: biochemical
Assay [1] deals with T1, activated hepsin (Homo sapiens, UniProt P05981).
T1 construct: purchased R&D Systems 4776-SE-010
Kind of assay: Fluorescent kinetic enzyme assay of hepsin activity (Boc-QAR-AMC). The settings on record: Table 2; read-out: Hepsin (IC50 nM).

For assay [2], the target named is Factor Xa (Homo sapiens, UniProt P00742). Kind of assay: Chromogenic kinetic enzyme assay of Factor Xa (S2222). Conditions: Table 2; chromogenic assay; read-out: Factor Xa* (IC50 nM).
Chain of Factor Xa (P00742 235-488 limits assumed): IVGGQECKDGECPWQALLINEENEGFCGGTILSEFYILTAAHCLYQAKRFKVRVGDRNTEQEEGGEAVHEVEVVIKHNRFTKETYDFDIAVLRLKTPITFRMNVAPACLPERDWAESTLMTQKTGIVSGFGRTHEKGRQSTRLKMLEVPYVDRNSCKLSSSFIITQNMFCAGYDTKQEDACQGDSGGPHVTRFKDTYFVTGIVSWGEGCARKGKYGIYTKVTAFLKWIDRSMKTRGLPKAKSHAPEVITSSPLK
Chain of Factor Xa (P00742 41-179 partner limits assumed): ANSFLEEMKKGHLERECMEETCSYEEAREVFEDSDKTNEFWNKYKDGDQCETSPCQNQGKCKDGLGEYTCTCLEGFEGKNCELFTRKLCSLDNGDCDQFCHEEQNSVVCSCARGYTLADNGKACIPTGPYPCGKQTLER
Assay [3] concerns the target T2, recombinant HGFA serine protease domain (Homo sapiens, UniProt Q04756).
T2 construct: His6 tag (N); seven amino acid spacer plus TEV cleavage site (N); made in house; host or cells: High 5 insect cells (baculovirus; Sf9 for virus production)
T2 sequence (Q04756 373-655): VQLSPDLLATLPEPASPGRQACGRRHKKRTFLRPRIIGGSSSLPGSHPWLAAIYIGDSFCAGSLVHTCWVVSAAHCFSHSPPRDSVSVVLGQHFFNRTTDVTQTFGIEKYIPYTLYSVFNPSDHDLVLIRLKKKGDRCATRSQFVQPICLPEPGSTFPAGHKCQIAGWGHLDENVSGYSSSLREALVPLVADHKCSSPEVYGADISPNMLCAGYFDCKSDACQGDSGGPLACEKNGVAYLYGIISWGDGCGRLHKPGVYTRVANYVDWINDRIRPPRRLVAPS
Kind of assay: Fluorescent kinetic enzyme assay of HGFA activity (Boc-QLR-AMC). Conditions: Table 2; read-out: HGFA (IC50 nM). In outline:
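His-tagged HGFA protease domain from baculovirus-infected High 5 cells, 6.25 nM in pH 8 Tris/NaCl/5 mM CaCl2/0.01% Triton X-100 with 2% DMSO. IC50 from four-parameter velocity fit (≥3 runs); apparent Ki by Cheng–Prusoff.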

Assay [4] addresses T3, KLK5 (Homo sapiens, UniProt Q9Y337).
T3 construct: purchased R&D Systems 1108-SE-010
T3 sequence (Q9Y337 23-293): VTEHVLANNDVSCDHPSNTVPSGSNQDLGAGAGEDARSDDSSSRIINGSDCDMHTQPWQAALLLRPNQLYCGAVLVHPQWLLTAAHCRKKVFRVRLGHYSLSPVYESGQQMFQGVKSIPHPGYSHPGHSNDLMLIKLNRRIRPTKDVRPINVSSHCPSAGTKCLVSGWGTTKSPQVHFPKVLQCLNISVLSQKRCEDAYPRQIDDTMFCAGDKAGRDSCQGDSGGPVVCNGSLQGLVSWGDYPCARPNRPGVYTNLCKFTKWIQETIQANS
Kind of assay: Fluorescent kinetic enzyme inhibitor assay of KLK5 (Boc-VPR-AMC). The settings on record: Table 4; 7.5 nM KLK5, 100 μM substrate. As to the method: Fluorescent Kinetic Enzyme Inhibitor Assay of KLK5: Inhibitors (11-pt serial dilutions, 0-20 μM final concentration in reaction) were serially diluted in DMSO (2% DMSO final concentration) and then mixed with KLK5 (#1108-SE-010, R&D Systems, Minneapolis, Minnesota) in black 384 well plates (Corning #3575. Corning, NY). The final assay concentration for KLK5 is 7.5 nM in TNC buffer (25 mM Tris, 150 mM NaCl, 5 mM CaCl2), 0.01% Triton X-100, pH 8). After thirty minutes incubation at room temperature, Boc-VPR-AMC substrate was added. The final substrate concentrations for assay is 100 μM. Changes in fluorescence (excitation at 380 nm and emission at 460 nm) were measured at room temperature over time in a Biotek Synergy 2 plate reader (Winnoski, VT). Using GraphPad Prism version 6.04 software program, (GraphPad Software, San Diego, CA, graphpad.com), a four parameter curve fit was used to determine the inhibitor IC50s from a plot of the mean reaction velocity versus the inhibitor concentration. The IC50 values represent the average of three or more separate experimental determinations.

Assay [5] addresses T4, matriptase (Homo sapiens, UniProt Q9Y5Y6).
T4 construct: purchased R&D Systems 3946-SE-010
T4 sequence (Q9Y5Y6 615-855 limits assumed): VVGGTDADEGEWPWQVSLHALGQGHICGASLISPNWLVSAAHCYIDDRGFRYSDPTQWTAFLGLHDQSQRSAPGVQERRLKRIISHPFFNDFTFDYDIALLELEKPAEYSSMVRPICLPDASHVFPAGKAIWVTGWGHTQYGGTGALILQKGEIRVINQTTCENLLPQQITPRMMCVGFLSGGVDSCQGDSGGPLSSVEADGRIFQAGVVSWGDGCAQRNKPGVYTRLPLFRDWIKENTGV
Kind of assay: Fluorescent kinetic enzyme assay of matriptase activity (Boc-QAR-AMC). The settings on record: Table 2; read-out: Matriptase (IC50 nM).

T1 sequence (P05981 163-417 limits assumed): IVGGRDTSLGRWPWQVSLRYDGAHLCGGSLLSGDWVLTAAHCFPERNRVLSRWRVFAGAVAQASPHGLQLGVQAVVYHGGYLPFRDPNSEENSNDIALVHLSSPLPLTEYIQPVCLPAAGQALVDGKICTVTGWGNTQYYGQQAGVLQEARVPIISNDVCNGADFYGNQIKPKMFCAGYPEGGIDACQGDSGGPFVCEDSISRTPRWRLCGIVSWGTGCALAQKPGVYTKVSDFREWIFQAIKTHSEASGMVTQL
T1 sequence (P05981 1-162 partner limits assumed): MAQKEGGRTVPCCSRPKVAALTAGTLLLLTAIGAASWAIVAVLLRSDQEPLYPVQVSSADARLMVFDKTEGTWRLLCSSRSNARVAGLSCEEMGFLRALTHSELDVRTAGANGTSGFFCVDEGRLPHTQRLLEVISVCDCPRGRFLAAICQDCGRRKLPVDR

Regarding `CC(=O)N[C@H]1Cc2ccc(cc2)OC/C=C\C[C@@H](C(=O)N[C@@H](CCCNC(=N)N)C(=O)c2nc3ccccc3s2)NC(=O)[C@H](CC(C)C)NC1=O` [VD4010, (7S,10S,13S,Z)-13-acetamido-N—((S)-1-(benzo[d]thiazol-2-yl)-5-guanidino-1-oxopentan-2-yl)-10-isobutyl-9,12-dioxo-2-oxa-8,11-diaza-1(1,4)-benzenacyclotetradecaphan-4-ene-7-carboxamide], the IC50 amounted to 0.141 nM in assay [1], 122 nM in assay [2], 11.1 nM in assay [3] and 3.24 nM in assay [5]. Moreover, in assay [4], the pIC50 was 5.74.
Consider `CC(=O)N[C@H]1Cc2ccc(cc2)OCCCC[C@@H](C(=O)N[C@@H](CCCNC(=N)N)C(=O)c2nc3ccccc3s2)NC(=O)[C@H](Cc2ccccc2)NC1=O` [VD4111, (7S,10S,13S)-13-acetamido-N—((S)-1-(benzo[d]thiazol-2-yl)-5-guanidino-1-oxopentan-2-yl)-10-benzyl-9,12-dioxo-2-oxa-8,11-diaza-1(1,4)-benzenacyclotetradecaphane-7-carboxamide], for which the concentration for half-maximal inhibition (IC50) in assay [1] stood at 0.331 nM; in assay [3], 11.9 nM; in assay [5], 17 nM. The pIC50 in assay [4] was 6.19.

One may read the IC50 as the concentration at which inhibition is half-maximal. Usually pIC50 stands for −log10 of the IC50, conventionally taken in molar units.
